# Source: patent US7947312B2, “Method of preparation and composition of a water soluble extract of the bioactive component of the plant species Uncaria for enhancing immune, anti-inflammatory, anti-tumor and DNA repair processes of warm blooded animals” (priority 2002, dated 2011)
# Counter-ions that a name gives are not always drawn. Like-named read-outs stand apart in the source and are kept apart here.
# Key:
# HL-60 W6899 cells = assay: HL-60 bioassay, microculture 5 days, clonogenicity estimated by MTT assay (Table 1); type: cell-based, human; conditions: Homo sapiens, HL-60, parameters are approximations
# Experimental: An assay of biological activity of C-MED-100®'s active ingredient is prepared as follows: HL-60 […] cells are exposed in microculture at 5000 cells per well (96-well plates) for 5 days at 37 ? C. in a CO2 incubator. After incubation, the cells are washed with saline and clonogenicity estimated by MTT assay.
# DXR-induced leucopenia = assay: Doxorubicin (DXR)-induced leucopenia rat model, recovery of peripheral WBC; type: in vivo; conditions: 200 mg/kg gavage, compared to C-MED-100
# Description: In vivo evaluation of the efficacy of quinic acid as an active ingredient isolated from water soluble Cat's Claw extracts. A rat model was used to evaluate if active ingredients isolated from water soluble extracts of Cat's Claw could be shown to be effective in vivo by inducing recovery of peripheral white blood cells (WBC) after doxorubicin (DXR)-induced leucopenia. […] The rat study experimental design used to compare quinic acid and C-MED-100® is outlined in detail (diagrammatic form) below.
# 50 female W/Fu rats, weighing 150-180 g each, were divided into 5 groups of 10 rats per group. Doxorubicin, obtained from Pharmacia and Upjohn, was administered in a 2 mg/kg dose for all rats groups 2-5, IP injection (day 1, 3, 5). Group 3 also received C-MED-100® (Batch No E-40622), administered in a dose of 80 mg/kg, gavage daily from day 6 (24 hours after the third/last treatment of DXR) to the end of experiment (day 21/22). […]
# The body weight (GM) of each rat was measured before and at the end of the experiment. […] Whole peripheral blood samples were collected into K3-EDTA containing tubes by periorbital puncture and then analyzed for WBC within 1 hour with an automated hematology analyzer (Sysmex, K-1000) Organ weights from major tissues (liver, kidney, lung, heart, spleen) were also collected and used as an indicator of any toxicity.
# [1] = test system: Raji human Burkitt's lymphoma; assay: Raji cell proliferation (Coulter count, trypan blue); type: cell-based; conditions: 48 hours
# Experimental: FIG. 3A illustrates Raji cells (2×10^5) that were cultured in the presence of indicated concentrations of C-MED-100®, QAA or QA. Growth rate was assayed after 48 hours by counting triplicate samples of duplicate cultures in a Coulter cell counter. Results from one representative experiment out of two performed is presented as mean values of cell/ml±standard deviation (S.D).
# FIG. 3B illustrates triplicate samples of cells from duplicate parallel cultures stained with trypan blue at indicated times and counted.
# (§1) Cell cultures: Raji human Burkitt's lymphoma (CCL-86), Jurkat human acute T-cell leukemia (TIB-152), 70Z/3 mouse pre-B lymphocyte cell line (TIB-158), or mouse spleen cells were used in the experiments. The cells were cultured in RPMI medium (Life Technologies) supplemented with 10% FCS, 10 mM HEPES buffer, antibiotics, 50 μM 2-mercaptoethanol and 1 mM sodium pyruvate (all supplements from Life Technologies) at 37° C., 5% CO2. The number of Raji cells in duplicate cultures were determined with a Coulter Z1 cell counter (Beckman Coulter Inc, Fullerton, Calif., USA) three times each. The number of viable and dead cells were determined using trypan blue exclusion, by counting three independent samples from duplicate cultures. […] Proliferation was detected by measuring thymidine incorporation after a 4 hours pulse with 1 μCi ^3[H]-thymidine (Amersham Pharmacia).
# Jurkat T cells [2] = assay: Jurkat T cell death and apoptosis (Annexin V / 7AAD); type: cell-based, human; conditions: 24 hours, concentrations inhibiting NF-κB
# Experimental: FIG. 5A illustrates Jurkat T that are cells transfected with a NF-κB reporter construct were pre-cultured with various concentrations of QA or C-MED-100® for two hours. PMA (50 ng/ml) and ionomycin (1 μM) were thereafter added and the cells incubated for another six hours. The mean induction of luciferase activity in triplicate cultures from one representative experiment out of four are shown (left panel). QA induced no cell death or apoptosis in Jurkat T cells at concentrations which inhibited NF-κB activity. Jurkat T cells were incubated with various concentrations of QA for 24 hours and thereafter stained with Annexin V and 7AAD before analysis by flow cytometry. […]
# as §1, with “The cells were cultured in RPMI medium (Life Technologies) supplemented with 10% FCS, 10 mM HEPES buffer, antibiotics, 50 μM 2-mercaptoethanol and 1 mM sodium pyruvate (all supplements from Life Technologies) at 37° C., 5% CO2.” left out
# Jurkat T cells [3] = assay: Jurkat T cell proliferation (data not shown); type: cell-based, human
# [4] = test system: NF-κB dependent Igκ-chain expression in 70Z/3 cells; assay: LPS-induced Igκ-chain expression in 70Z/3 cells (flow cytometry, 7AAD); type: cell-based
# Experimental: FIG. 5B illustrates 70Z/3 cells (2×10^5) that were pretreated for 4 h with C-MED-100® or QA before activation for 20 h with LPS (25 μg/ml). The cells were thereafter stained with 7AAD and Igκ-antibodies and analyzed by flow cytometry. The results are mean Igκ-positive cells±S.D. (left panel) and mean 7AAD negative cells±S.D. (right panel) of duplicate cultures from one representative experiment out of two performed.
# as §1
# [5] = test system: mouse spleen cells activated with Con A or LPS; assay: Proliferation of mitogen-stimulated mouse spleen cells (3[H]-thymidine incorporation); type: cell-based; conditions: Con A 2.5 μg/ml or LPS 10 μg/ml, 48 hours
# Experimental: FIG. 4A illustrates spleen cells (2×10^5) that were activated with Con A (left; 2.5 μg/ml) or LPS (right; 10 μg/ml) in the presence of indicated concentrations of C-MED-100®, QAA or QA. Proliferation was assayed after 48 hours by ^3[H]-thymidine incorporation in triplicate cultures. Results from one representative experiment out of three are presented as mean values±S.D.
# as §1
Compound,"IC50 (HL-60 W6899 cells; after 1% aqueous ammonia, read-out: Bioassay after 1% aqueous ammonia IC50 HL-60 cells) [µg/mL]",IC50 (HL-60 W6899 cells; read-out: Bioassay efficacy using IC50 in HL-60 cells) [µg/mL],recovery from DXR-induced leucopenia (DXR-induced leucopenia),Raji cell proliferation [1],cell death in Jurkat T cells (Jurkat T cells [2]),proliferation of Jurkat T cells (Jurkat T cells [3]),cell death in 70Z/3 cells (7AAD) [4],"LPS-induced Igκ-chain expression ([4]; 70Z/3 cells, 4 h pretreatment, LPS 25 μg/ml 20 h)",proliferation of mitogen-stimulated mouse lymphocytes [5]
"O=C(O)C1(O)CC(O)C(O)C(O)C1 (centres unmarked) [QA, 1,3,4,5-tetrahydroxy-cyclohexanecarboxylic acid]",> 3000,> 3000,could induce recovery from DXR-induced leucopenia about as effectively as 80 mg/kg C-MED-100® could,neither inhibited the proliferation of Raji tumor cells,did not induce cell death,did not inhibit proliferation,without causing cell death,inhibited Igκ-chain expression to a similar extent,
"O=C(O)[C@]1(O)C[C@@H](O)[C@@H](O)[C@H](O)C1 [QAA, quinic acid ammonium salt]",,,could induce recovery from DXR-induced leucopenia about as effectively as 80 mg/kg C-MED-100® could,inhibited cell proliferation in a dose dependent manner,,,,,inhibited cell proliferation in a dose dependent manner
